Source: patent publication US10919852B2, “Immunomodulator compounds” (CHEMOCENTRYX, INC., priority 2017, dated 2021)

Biological target: human PD-L1 / Human PD-1 (Homo sapiens (Human), UniProt Q9NZQ7)
Assay: Enzyme-Linked Immunosorbent Assay (ELISA), PD-1/PD-L1 binding
Details: plate-coated human PD-L1, biotinylated human PD-1
Summary of the method: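 Compound dilutions (1:5 series) competed with 0.3 μg/mL biotin-labelled human PD-1 for PD-L1 immobilised at […], for 1 h at 37 °C. Read-out was A450 after streptavidin-HRP and a 20 min TMB reaction, stopped with 2 N H2SO4.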

human PD-L1 / Human PD-1, sequence (Q9NZQ7 19-239): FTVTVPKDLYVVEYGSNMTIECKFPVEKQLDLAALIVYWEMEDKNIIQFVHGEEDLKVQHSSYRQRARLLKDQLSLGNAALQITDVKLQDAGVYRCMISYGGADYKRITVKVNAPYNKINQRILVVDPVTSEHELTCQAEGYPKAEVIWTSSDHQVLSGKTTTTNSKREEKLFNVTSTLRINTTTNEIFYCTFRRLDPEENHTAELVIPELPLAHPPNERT

| IC50 [nM] | SMILES |
| --- | --- |
| < 5 | Cc1c(OCCCN2CCC(O)CC2)cccc1-c1cccc2c1CC[C@@H]2Oc1cc(OCc2cncc(C#N)c2)c(CN2CC(O)C2)cc1Cl |
| 5 to 500 | Cc1c(OCCCN2CCC(F)CC2)cccc1-c1cccc2c1CC[C@@H]2Oc1cc(OCc2cc(C#N)cc(C#N)c2)c(CN[C@@H]2CCCNC2=O)cc1Cl |
| < 5 | CN(Cc1cc(Cl)c(O[C@H]2CCc3c(-c4cccc(OCCCN5CC(O)C5)c4Cl)cccc32)cc1OCc1cncc(C#N)c1)[C@@](C)(CO)C(=O)O |
| < 5 | Cc1c(OCCCN2CCC(C)CC2)cccc1-c1cccc2c1CC[C@@H]2Oc1cc(OCc2cc(C#N)cc(C#N)c2)c(CNC[C@H]2CCC(=O)N2)cc1Cl |
| < 5 | Cc1c(OCCCN2CCC(O)CC2)cccc1-c1cccc2c1CC[C@@H]2Oc1cc(OCc2cc(C#N)cc(C#N)c2)c(CN[C@@H](CO)C(=O)O)cc1Cl |
| < 5 | Cc1c(OCCCN2CCC(O)CC2)cccc1-c1cccc2c1CC[C@@H]2Oc1cc(OCc2cncc(C#N)c2)c(CN[C@@H]2CCC[C@H]2O)cc1Cl |
| 5 to 500 | CCOc1cc(O[C@@H]2c3cccc(-c4cccc(OCCCN5CC(O)C5)c4Cl)c3C[C@@H]2F)c(Cl)cc1CN[C@@](C)(CO)C(=O)O |
| 5 to 500 | CCOc1cc(O[C@H]2CCc3c(-c4cccc(OCCCN5[C@H](C)CC[C@H]5C)c4C)cccc32)c(Cl)cc1CN1CCCC[C@@H]1C(=O)O |
| < 5 | Cc1c(OCCCN2CC[C@@H](O)C2)cccc1-c1cccc2c1CC[C@@H]2Oc1cc(OCc2cncc(C#N)c2)c(CN[C@H](C(=O)O)[C@@H](C)O)cc1Cl |
| 5 to 500 | CCOc1cc(O[C@H]2CCc3c(-c4cccc(OCCCN5[C@H](C)CC[C@H]5C)c4C)cccc32)c(Cl)cc1CN1CCC(C(=O)O)CC1 |
| 5 to 500 | Cc1c(OCCCN2CCC(F)CC2)cccc1-c1cccc2c1CC[C@@H]2Oc1cc(OCc2cc(C#N)cc(C#N)c2)c(CNC[C@H]2CCC(=O)N2)cc1Cl |
| < 5 | N#Cc1cncc(COc2cc(O[C@H]3CCc4c(-c5cccc(OCCCN6CCC(F)CC6)c5Cl)cccc43)c(Cl)cc2CN[C@@H]2CCC[C@H]2O)c1 |
| 5 to 500 | CCOc1cc(O[C@H]2CCc3c(-c4cccc(OCCCN5CCC5(C)C)c4C)cccc32)c(Cl)cc1CNCCc1nnn[nH]1 |
| 5 to 500 | CCOc1cc(O[C@H]2CCc3c(-c4cccc(OCCCN5CCC(F)CC5)c4Cl)cccc32)c(Cl)cc1CNCC1CCC(=O)N1 (stereo partly drawn) |
| 5 to 500 | CCOc1cc(O[C@H]2CCc3c(-c4cccc(OCCCN5CCC5(C)C)c4C)cccc32)c(Cl)cc1CN(C)C(C)CC(=O)O (stereo partly drawn) |
| < 5 | CCOc1cc(O[C@H]2CCc3c(-c4cccc(OCCCN5CCC(F)CC5)c4C)cccc32)c(Cl)cc1CN[C@@H](CO)C(=O)O |
| < 5 | N#Cc1cncc(COc2cc(O[C@H]3CCc4c(-c5cccc(OCCCN6CC7(CC(F)C7)C6)c5Cl)cccc43)c(Cl)cc2CN[C@H]2CCC[C@H]2O)c1 |
| < 5 | C[C@@H](O)[C@H](NCc1cc(Cl)c(O[C@H]2CCc3c(-c4cccc(OCCCN5CCC(O)CC5)c4Cl)cccc32)cc1OCc1cncc(C#N)c1)C(N)=O |
| 5 to 500 | Cc1c(OCCCN2CCC(F)CC2)cccc1-c1cccc2c1CC[C@@H]2Oc1cc(OCc2cc(C#N)cc(C#N)c2)c(CN2CC3(C2)NC(=O)NC3=O)cc1Cl |
| 5 to 500 | CCOc1cc(O[C@H]2CCc3c(-c4cccc(OCCCN5CC(O)C5)c4Cl)cccc32)c(Cl)cc1CNCC1CCC(=O)N1 (stereo partly drawn) |

| IC50 [nM] | SMILES |
| --- | --- |
| < 5 | N#Cc1cncc(COc2cc(O[C@H]3CCc4c(-c5cccc(OCCCN6CCC6)c5Cl)cccc43)c(Cl)cc2CN[C@@H]2CCCC[C@@H]2O)c1 |
| 5 to 500 | Cc1c(OCCCN2CCC(F)CC2)cccc1-c1cccc2c1C[C@@H](F)[C@@H]2Oc1cc(OCc2cc(C#N)cc(C#N)c2)c(CN[C@H]2CCC(=O)NC2)cc1Cl |
| < 5 | CCOc1cc(O[C@H]2CCc3c(-c4cccc(OCCCN5CC6(CC(O)C6)C5)c4C)cccc32)c(Cl)cc1CN[C@@H](CO)C(=O)O |
| < 5 | CC(=O)OC1CCN(CCCOc2cccc(-c3cccc4c3CC[C@@H]4Oc3cc(OCc4cncc(C#N)c4)c(CN[C@@H]4CCCC[C@@H]4O)cc3Cl)c2Cl)CC1 |
| < 5 | Cc1c(OCCCN2CCC[C@@H](O)C2)cccc1-c1cccc2c1CC[C@@H]2Oc1cc(OCc2cncc(C#N)c2)c(CN[C@H](C(=O)O)[C@@H](C)O)cc1Cl |
| < 5 | C[C@@H](O)[C@H](NCc1cc(Cl)c(O[C@H]2CCc3c(-c4cccc(OCCCN5CCC(C)(F)CC5)c4Cl)cccc32)cc1OCc1cncc(C#N)c1)C(=O)NS(C)(=O)=O |
| 5 to 500 | CCOc1cc(O[C@H]2CCc3c(-c4cccc(OCCCN5CCC(F)CC5)c4Cl)cccc32)c(Cl)cc1CN[C@H]1CCC(=O)NC1 |
| 500 to 20000 | N#Cc1cncc(-c2cc(O[C@H]3CCc4c(-c5cccc(OCCCN6CCC(F)CC6)c5Cl)cccc43)c(Cl)cc2CNC[C@H]2CCC(=O)N2)c1 |
| 5 to 500 | Cc1c(OCCCN2[C@H](C)CCC[C@@H]2C)cccc1-c1cccc2c1CC[C@@H]2Oc1cc(OCc2cc(C#N)cc(C#N)c2)c(CNC[C@H]2CCC(=O)N2)cc1Cl |
| < 5 | Cc1c(OCCCN2CCCC2)cccc1-c1cccc2c1CC[C@@H]2Oc1cc(OCc2cc(C#N)cc(C#N)c2)c(CN[C@H]2CCC(=O)NC2)cc1Cl |
| < 5 | CCOc1cc(O[C@H]2CCc3c(-c4cccc(OCCCN5CC[C@@H](O)C5)c4C)cccc32)c(Cl)cc1CNC(CO)CO |
| < 5 | Cc1c(OCCCN2CCC(F)CC2)cccc1-c1cccc2c1CC[C@@H]2Oc1cc(OCc2cc(C#N)cc(C#N)c2)c(CN[C@@H]2CCC[C@H]2O)cc1Cl |
| 5 to 500 | CCOc1cc(O[C@H]2CCc3c(-c4cccc(OCCCN5CCC5(C)C)c4C)cccc32)c(Cl)cc1CNCC1CCC(=O)N1C (stereo partly drawn) |
| < 5 | N#Cc1cncc(COc2cc(O[C@H]3CCc4c(-c5cccc(OCCCN6CCC(F)CC6)c5Cl)cccc43)c(Cl)cc2CN2CC[C@@H](O)C2)c1 |
| 5 to 500 | CCOC(=O)[C@@H](NCc1cc(Cl)c(O[C@H]2CCc3c(-c4cccc(OCCCN5CCC(O)CC5)c4C)cccc32)cc1OCc1cncc(C#N)c1)[C@@H](C)O |
| 5 to 500 | N#Cc1cncc(COc2cc(O[C@H]3CCc4c(-c5cccc(OCCCN6CC7(CC(O)C7)C6)c5Cl)cccc43)c(Cl)cc2CN2CCC3(C2)NC(=O)NC3=O)c1 (stereo partly drawn) |
| 5 to 500 | CCOc1cc(O[C@H]2CCc3c(-c4cccc(OCCCN5CCC5(C)C)c4C)cccc32)c(Cl)cc1CNCC(C)(C)CO |
| < 5 | C[C@@](CO)(NCc1cc(Cl)c(O[C@@H]2c3cccc(-c4cccc(OCCCN5CC(O)C5)c4Cl)c3C[C@@H]2F)cc1OCc1cncc(C#N)c1)C(=O)O |
| < 5 | N#Cc1cncc(COc2cc(O[C@H]3CCc4c(-c5cccc(OCCCN6CC7(CC(F)C7)C6)c5Cl)cccc43)c(Cl)cc2CN[C@@H]2CC[C@H]2O)c1 |
| < 5 | N#Cc1cncc(COc2cc(O[C@H]3CCc4c(-c5cccc(OCCCN6CC(O)C6)c5Cl)cccc43)c(Cl)cc2CNCC(=O)O)c1 |

| IC50 [nM] | SMILES |
| --- | --- |
| < 5 | Cc1c(OCCCN2CCC(F)CC2)cccc1-c1cccc2c1CC[C@@H]2Oc1cc(OCc2cncc(C#N)c2)c(CNCCS(=O)(=O)O)cc1Cl |
| < 5 | N#Cc1cncc(COc2cc(O[C@H]3CCc4c(-c5cccc(OCCCN6CCC(F)CC6)c5Cl)cccc43)c(Cl)cc2CN[C@H]2CC[C@@H]2O)c1 |
| < 5 | Cc1c(OCCCN2CCC2)cccc1-c1cccc2c1CC[C@@H]2Oc1cc(OCc2cc(C#N)cc(C#N)c2)c(CNC[C@H]2CCC(=O)N2)cc1Cl |
| 5 to 500 | Cc1c(OCCCN2CCC(C)(F)CC2)cccc1-c1cccc2c1CC[C@@H]2Oc1cc(OCc2cncc(C#N)c2)c(CN[C@H]2CCC(=O)NC2)cc1Cl |
| < 5 | N#Cc1cncc(COc2cc(O[C@H]3CCc4c(-c5cccc(OCCCN6CCC(F)CC6)c5Cl)cccc43)c(Cl)cc2CN[C@H]2CCC[C@H]2O)c1 |
| < 5 | CCOc1cc(O[C@H]2CCc3c(-c4cccc(OCCCN5CCC5(C)C)c4C)cccc32)c(Cl)cc1CNC[C@@H]1CCC(=O)N1 |
| < 5 | CC1(O)CN(CCCOc2cccc(-c3cccc4c3CC[C@@H]4Oc3cc(OCc4cncc(C#N)c4)c(CN[C@@](C)(CO)C(=O)O)cc3Cl)c2Cl)C1 |
| < 5 | N#Cc1cncc(COc2cc(O[C@H]3CCc4c(-c5cccc(OCCCN6CCC(F)CC6)c5Cl)cccc43)c(Cl)cc2CN[C@H]2CCC(=O)NC2)c1 |
| 5 to 500 | N#Cc1cncc(COc2cc(O[C@H]3CCc4c(-c5cccc(OCCCN6CCC(F)CC6)c5Cl)cccc43)c(Cl)cc2CN2CCCC3(C2)NC(=O)NC3=O)c1 (stereo partly drawn) |
| < 5 | Cc1c(OCCCN2CCC(O)CC2)cccc1-c1cccc2c1CCC2Oc1cc(OCc2cc(C#N)cc(C#N)c2)c(CN[C@@H](CO)C(=O)O)cc1Cl (stereo partly drawn) |
| 5 to 500 | Cc1c(OCCCN2CCC(F)CC2)cccc1-c1cccc2c1CC[C@@H]2Oc1cc(OCc2cc(C#N)cc(C#N)c2)c(CN[C@H]2CCNC2=O)cc1Cl [drawing 306] |
| < 5 | N#Cc1cncc(COc2cc(O[C@H]3CCc4c(-c5cccc(OCCCN6CC7(CC(O)C7)C6)c5Cl)cccc43)c(Cl)cc2CN[C@H]2CCC[C@H]2O)c1 |
| 5 to 500 | CCOc1cc(O[C@H]2CCc3c(-c4cccc(OCCCN5CCC5(C)C)c4C)cccc32)c(Cl)cc1CN(CCC(=O)O)C(C)C |
| < 5 | Cc1c(OCCCN2CCC(O)CC2)cccc1-c1cccc2c1CC[C@@H]2Oc1cc(OCc2cncc(C#N)c2)c(CNCC(C)(C)O)cc1Cl |
| < 5 | Cc1c(OCCCN2CC(O)C2)cccc1-c1cccc2c1CC[C@@H]2Oc1cc(OCc2cncc(C#N)c2)c(CNCC2CCC(=O)N2)cc1Cl (stereo partly drawn) |
| 5 to 500 | Cc1c(OCCCN2CCC(F)CC2)cccc1-c1cccc2c1CC[C@@H]2Oc1cc(OCc2cc(C#N)cc(C#N)c2)c(CN[C@H]2CCNC2=O)cc1Cl [drawing 345] |
| 5 to 500 | CN1CCC(COc2cccc(-c3cccc4c3CC[C@@H]4Oc3cc(OCc4cncc(C#N)c4)c(CN[C@H]4CCC(=O)NC4)cc3Cl)c2Cl)C1 (stereo partly drawn) |
| < 5 | Cc1c(OCCCN2CCC(O)CC2)cccc1-c1cccc2c1CC[C@@H]2Oc1cc(OCc2cncc(C#N)c2)c(CNC2(C(=O)O)CCC2)cc1Cl |
| < 5 | Cc1c(OCCCN2CCC(O)CC2)cccc1-c1cccc2c1CCC2Oc1cc(OCc2cc(C#N)cc(C#N)c2)c(CN[C@@H]2CCCC[C@@H]2O)cc1Cl (stereo partly drawn) |
| 5 to 500 | N#Cc1cncc(COc2cc(O[C@H]3CCc4c(-c5cccc(OCCCN6CCC(F)CC6)c5Cl)cccc43)c(Cl)cc2CN2CCNC(=O)C2)c1 |
